Reference: BindingDB's records for doi:10.1016/j.bmcl.2006.01.105 (Wyeth Research, 2006)

Experiment: Antiviral activity against Hepatitis C virus replicon in Huh7 cells

`CCCC1(C(=O)O)CCc2c1[nH]c1c(Cl)ccc(Cl)c21` (stereo unspecified) [5,8-dichloro-3-propyl-1,2,3,4-tetrahydrocyclopenta[b]indole-3-carboxylic acid] showed an IC50 of 27 µM.
